Publication PMC4980831 (Arzneimittel-Forschung, 2009)

Tests used:
[1] = molecular target: PDE11 (Homo sapiens, UniProt Q9HCR9); experiment: IMAP fluorescence polarization PDE assay; format: biochemical
[2] = molecular target: PDE5 (Homo sapiens, UniProt O76074); experiment: IMAP fluorescence polarization PDE assay; format: biochemical

Sequence of PDE11 (Q9HCR9 whole entry): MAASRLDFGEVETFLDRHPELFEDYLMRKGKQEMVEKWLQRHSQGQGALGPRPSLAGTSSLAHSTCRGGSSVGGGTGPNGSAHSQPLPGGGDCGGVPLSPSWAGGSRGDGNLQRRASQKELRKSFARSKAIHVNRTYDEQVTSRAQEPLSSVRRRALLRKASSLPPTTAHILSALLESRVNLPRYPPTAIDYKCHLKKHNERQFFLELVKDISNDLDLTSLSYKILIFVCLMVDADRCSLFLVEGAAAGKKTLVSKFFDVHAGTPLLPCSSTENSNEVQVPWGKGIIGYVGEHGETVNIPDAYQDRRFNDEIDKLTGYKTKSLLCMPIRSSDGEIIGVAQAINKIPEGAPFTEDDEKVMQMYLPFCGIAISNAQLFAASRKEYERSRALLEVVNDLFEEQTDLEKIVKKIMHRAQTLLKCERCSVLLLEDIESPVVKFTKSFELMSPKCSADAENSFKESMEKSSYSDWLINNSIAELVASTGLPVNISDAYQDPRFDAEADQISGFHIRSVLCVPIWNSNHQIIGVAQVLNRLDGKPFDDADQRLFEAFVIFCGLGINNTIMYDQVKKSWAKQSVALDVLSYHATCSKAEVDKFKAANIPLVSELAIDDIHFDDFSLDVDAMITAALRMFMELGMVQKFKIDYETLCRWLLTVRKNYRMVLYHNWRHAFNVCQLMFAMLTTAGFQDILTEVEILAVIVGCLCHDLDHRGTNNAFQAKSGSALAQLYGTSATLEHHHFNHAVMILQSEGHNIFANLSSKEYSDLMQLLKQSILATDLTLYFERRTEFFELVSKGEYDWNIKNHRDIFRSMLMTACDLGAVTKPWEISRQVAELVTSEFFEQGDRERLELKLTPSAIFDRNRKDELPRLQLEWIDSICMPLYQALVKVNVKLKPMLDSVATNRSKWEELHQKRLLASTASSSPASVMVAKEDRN

SMILES	IC50 [1] [µM]	IC50 [2] [µM]
CC1=C(CC(=O)O)c2cc(F)ccc2/C1=C\c1ccc(S(C)(=O)=O)cc1 [Exisulind, reference compound]	> 300	295 ± 1.11
CCN1C(=O)[C@@H]2Cc3c([nH]c4ccccc34)[C@H](c3cc(OC)ccc3OC)N2C1=O [VII, (5S,11aS)-2-Ethyl-5-(2,5-dimethoxyphenyl)-5,6,11,11a-tetrahydro-1H-imidazo[1′,5′:1,6]pyrido [3,4-b]indole-1,3(2H)-dione]	> 100	> 100
CCN1C(=O)[C@H]2Cc3c([nH]c4ccccc34)[C@H](c3cc(OC)ccc3OC)N2C1=S [X, (5S,11aR)-2-ethyl-1-oxo-5-(2,5-dimethoxy-phenyl)-5,6,11,11a-tetrahydro-1H-imidazo [1′,5′:1,6]pyrido[3,4-b]indole-3 (2H)-thione]	> 100	> 100
CCN1C(=O)[C@@H]2Cc3c([nH]c4ccccc34)[C@@H](c3cc(OC)ccc3OC)N2C1=O [VIII, (5R,11aS)-2-Ethyl-5-(2,5-dimethoxyphenyl)-5,6,11,11a-tetrahydro-1H-imidazo[1′,5′:1,6]pyrido [3,4-b]indole-1,3(2H)-dione]	> 100	87.4 ± 1.1
COC(=O)[C@@H]1Cc2c([nH]c3ccccc23)[C@@H](c2cc(OC)ccc2OC)N1 [IV, Methyl (1R,3S)-1-(2,5-dimethoxyphenyl)-2,3,4,9-tetrahydro-1H-β-carboline-3-carboxylate]	> 100	17.4 ± 1.09

Second part, the compound after the results:

IC50 [1] [µM]	IC50 [2] [µM]	SMILES
> 100	3.9 ± 1.09	COC(=O)[C@H]1Cc2c([nH]c3ccccc23)[C@@H](c2cc(OC)ccc2OC)N1 [I, Methyl (1R,3R)-1-(2,5-dimethoxyphenyl)-2,3,4,9-tetrahydro-1H-β-carboline-3-carboxylate]
> 100	14.3 ± 1.09	COC(=O)[C@@H]1Cc2c([nH]c3ccccc23)[C@H](c2cc(OC)ccc2OC)N1 [III, Methyl (1S,3S)-1-(2,5-dimethoxyphenyl)-2,3,4,9-tetrahydro-1H-β-carboline-3-carboxylate]
> 100	> 100	CCN1C(=O)[C@H]2Cc3c([nH]c4ccccc34)[C@H](c3cc(OC)ccc3OC)N2C1=O [VI, (5S,11aR)-2-Ethyl-5-(2,5-dimethoxyphenyl)-5,6,11,11^a-tetrahydro-1H-imidazo[1′,5′:1,6]pyrido [3,4-b]indole-1,3(2H)-dione]
> 100	5 ± 1.14	CCN1C(=O)[C@H]2Cc3c([nH]c4ccccc34)[C@@H](c3cc(OC)ccc3OC)N2C1=O [V, (5R,11aR)-2-Ethyl-5-(2,5-dimethoxyphenyl)-5,6,11,11a-tetrahydro-1H-imidazo[1′,5′:1,6]pyrido [3,4-b]indole-1,3(2H)-dione]
> 100	78.6 ± 1.14	CCN1C(=O)[C@@H]2Cc3c([nH]c4ccccc34)[C@@H](c3cc(OC)ccc3OC)N2C1=S [IX, (5R,11aS)-2-ethyl-1-oxo-5-(2,5-dimethoxyphe-nyl)-5,6,11,11a-tetrahydro-1H-imidazo[1′,5′:1,6] pyrido[3,4-b]indole-3 (2H)-thione]
> 100	> 100	COC(=O)[C@H]1Cc2c([nH]c3ccccc23)[C@H](c2cc(OC)ccc2OC)N1 [II, Methyl (1S,3R)-1-(2,5-dimethoxyphenyl)-2,3,4,9-tetrahydro-1H-β-carboline-3-carboxylate]
